Assay results published in US12116358B2, “Substituted indoles and methods of use thereof” (EPIZYME, INC., priority 2018, dated 2024).
pIC50: −log10 of the molar value. Where two headings read alike, the source gives them in different places.

Legend:
[1] = molecular target: T1, SETD2(1434-1711) (Homo sapiens, UniProt Q9BYW2); assay: SETD2 (1434-1711) assay; assay type: biochemical; conditions: read-out: SETD2 (1434-1711)
T1 construct: SETD2 (1434-1711) Assay; catalogue N/A
T1 sequence (Q9BYW2 1434-1711): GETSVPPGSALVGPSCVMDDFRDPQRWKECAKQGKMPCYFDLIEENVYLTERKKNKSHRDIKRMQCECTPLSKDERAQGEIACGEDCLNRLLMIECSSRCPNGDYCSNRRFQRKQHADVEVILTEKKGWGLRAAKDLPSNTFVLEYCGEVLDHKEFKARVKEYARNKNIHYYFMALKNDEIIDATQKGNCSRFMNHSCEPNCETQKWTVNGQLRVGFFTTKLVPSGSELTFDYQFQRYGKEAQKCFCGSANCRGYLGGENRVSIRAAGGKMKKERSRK

[2] = tested on: H3K36me3 in A549 cells; assay: In-Cell Western (ICW) assay of SETD2 inhibitors (A549 assay); assay type: cell-based, human; conditions: A549 cells, read-out: SETD2 A549
Procedure, shortened: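 H3K36me3 In-Cell Western: cells exposed to compound for 3 days at 4,000 cells/well, 37° C. DRAQ5 (1:1000) marked cell number, with 700/800-channel Licor read-out.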

pIC50 [1]	pIC50 ([2]; Homo sapiens)	pIC50 [2]	SMILES
7.52	6.70		Cc1ccc(F)c2cc(C(=O)N[C@@H]3CCC[C@H](c4ccncn4)C3)[nH]c12 [compound 1003]
6.00	5.74		CC(=O)N1CCN([C@@H]2C[C@H](NC(=O)c3cc4c(F)ccc(C)c4[nH]3)CN(C)C2)CC1 [compound 1006]
8.22	7.70		CC(=O)N1CCC([C@H]2CCC[C@@H](NC(=O)c3cc4c(F)ccc(C)c4[nH]3)C2)CC1 [compound 1007]
6.52	6.05		Cc1nc([C@H]2CCC[C@@H](NC(=O)c3cc4c(F)ccc(C)c4[nH]3)C2)no1 [compound 1011]
6.15	< 5.70		Cc1ccc(F)c2cc(C(=O)N[C@@H]3CCC[C@H](c4nccc(=O)[nH]4)C3)[nH]c12 [compound 1013]
6.70	6.15		Cc1ccc(F)c2cc(C(=O)N[C@@H]3CCC[C@H](c4noc(CN(C)C)n4)C3)[nH]c12 [compound 1014]
7.52		7.15	CC(=O)N1CCN(C2CCCC(NC(=O)c3cc4c(F)ccc(C)c4[nH]3)C2)CC1C(F)(F)F (centres unmarked) [compound 1018]
7.30		7.05	CC(=O)N1CCN(C2CCCC(NC(=O)c3cc4c(F)ccc(C)c4[nH]3)C2)C(C)C1 (centres unmarked) [compound 1021]
5.59		< 5.70	CC(=O)N1CCN(C2CCCC(NC(=O)c3cc4c(F)ccc(C)c4[nH]3)C2)CC1CO (centres unmarked) [compound 1022]
7.30	7.22		CC(=O)N1CCN([C@H]2CCC[C@@H](NC(=O)c3cc4c(F)ccc(C)c4[nH]3)C2)C2(CC2)C1 [compound 1024]
7.70	7.52		CC(=O)N1CCN([C@H]2CCC[C@@H](NC(=O)c3cc4c(F)ccc(C)c4[nH]3)C2)CC12CC2 [compound 1025]
6.70	5.85		Cc1ccc(F)c2cc(C(=O)N[C@@H]3CCC[C@H](N4CCn5nc(C(F)(F)F)nc5C4)C3)[nH]c12 [compound 1031]
6.70	6.40		CC(=O)N1CCN(C[C@H]2CCC[C@@H](NC(=O)c3cc4c(F)ccc(C)c4[nH]3)C2)CC1 [compound 1032]
7.52	6.52		Cc1ccc(F)c2cc(C(=O)N[C@@H]3CCC[C@H](N4CCN(C(=O)NC5CCOCC5)CC4)C3)[nH]c12 [compound 1037]
7.70	6.70		COCC(=O)N(C)[C@@H]1CCN([C@H]2CCC[C@@H](NC(=O)c3cc4c(F)ccc(C)c4[nH]3)C2)C1 [compound 1042]
8.10	7.40		COCC(=O)N(C)[C@H]1CCN([C@H]2CCC[C@@H](NC(=O)c3cc4c(F)ccc(C)c4[nH]3)C2)C1 [compound 1043]
7.70	7.70		Cc1ccc(F)c2cc(C(=O)N[C@@H]3CCC[C@H](N4CCN5C(=O)CCC[C@@H]5C4)C3)[nH]c12 [compound 1044]
8.10	7.52		Cc1ccc(F)c2cc(C(=O)N[C@@H]3CCC[C@H](N4CCN5C(=O)COCC5C4)C3)[nH]c12 (some centres unmarked) [compound 1045]
5.55		< 5.70	Cc1ccc(F)c2cc(C(=O)NC3CCCC(N4CCN5C(=O)CN(C)C(=O)C5C4)C3)[nH]c12 (centres unmarked) [compound 1046]
7.70	7.15		Cc1ccc(F)c2cc(C(=O)N[C@@H]3CCC[C@H](N4CCn5c(cccc5=O)C4)C3)[nH]c12 [compound 1048]
7.30	7.00		Cc1ccc(F)c2cc(C(=O)N[C@@H]3CCC[C@H](N4CCn5c(nccc5=O)C4)C3)[nH]c12 [compound 1049]
6.00		< 5.70	Cc1ccc(F)c2cc(C(=O)NC3CCCC(N4CCN5C(=O)NCC5C4)C3)[nH]c12 (centres unmarked) [compound 1050]

pIC50 [1]	pIC50 ([2]; Homo sapiens)	pIC50 [2]	SMILES
8.00		7.52	Cc1ccc(F)c2cc(C(=O)NC3CCCC(N4CCN5C(=O)N(C)CC5C4)C3)[nH]c12 (centres unmarked) [compound 1051]
7.70		7.30	Cc1ccc(F)c2cc(C(=O)NC3CCCC(N4CCC(N(C)C(=O)C(C)(C)O)C4)C3)[nH]c12 (centres unmarked) [compound 1052]
7.52		6.40	CCN(C(=O)CO)C1CCN(C2CCCC(NC(=O)c3cc4c(F)ccc(C)c4[nH]3)C2)C1 (centres unmarked) [compound 1053]
8.00	7.05		CCN([C@@H]1CCN([C@H]2CCC[C@@H](NC(=O)c3cc4c(F)ccc(C)c4[nH]3)C2)C1)S(C)(=O)=O [compound 1054]
8.05		8.30	CCC1CN(C2CCCC(NC(=O)c3cc4c(F)ccc(C)c4[nH]3)C2)CCN1C(C)=O (centres unmarked) [compound 1055]
7.05	6.52		Cc1ccc(F)c2cc(C(=O)N[C@@H]3CCC[C@H](N4CCn5c(nn(C)c5=O)C4)C3)[nH]c12 [compound 1056]
7.40	7.00		Cc1ccc(F)c2cc(C(=O)N[C@@H]3CCC[C@H](N4CCn5c(cn(C)c5=O)C4)C3)[nH]c12 [compound 1057]
7.40	6.22		Cc1ccc(F)c2cc(C(=O)N[C@@H]3CCC[C@H](N4CCn5c(n[nH]c5=O)C4)C3)[nH]c12 [compound 1058]
7.70	6.22		Cc1ccc(F)c2cc(C(=O)N[C@@H]3CCC[C@H](N4CCn5c(c[nH]c5=O)C4)C3)[nH]c12 [compound 1059]
7.70	6.52		Cc1ccc(F)c2cc(C(=O)N[C@@H]3CCC[C@H](N4CC[C@H](N(CCO)S(C)(=O)=O)C4)C3)[nH]c12 [compound 1061]
8.00	8.00		CC(=O)N1[C@H](C)CN([C@H]2CCC[C@@H](NC(=O)c3cc4c(F)ccc(C)c4[nH]3)C2)C[C@H]1C [compound 1062]
5.54	< 5.70		COCC(=O)N(C)[C@H]1CCN([C@@H]2CCC[C@@H](NC(=O)c3cc4c(F)ccc(C)c4[nH]3)C2)C1 [compound 1063]
5.64	< 5.70		Cc1ccc(F)c2cc(C(=O)N[C@@H]3CCC[C@@H](c4ccncn4)C3)[nH]c12 [compound 1064]
5.04	< 5.70		Cc1nc([C@@H]2CCC[C@H](NC(=O)c3cc4c(F)ccc(C)c4[nH]3)C2)no1 [compound 1065]
5.26		< 5.70	Cc1ccc(F)c2cc(C(=O)NC3CCCC(N4CCn5nc(C(F)(F)F)nc5C4)C3)[nH]c12 (centres unmarked) [compound 1066]
6.05		5.92	Cc1ccc(F)c2cc(C(=O)NC3CCCC(N4CCN5C(=O)COCC5C4)C3)[nH]c12 (centres unmarked) [compound 1067]
7.00	6.15		Cc1ccc(F)c2cc(C(=O)N[C@@H]3CCC[C@H](c4cc(=O)[nH]cn4)C3)[nH]c12 [compound 1068]
8.00	8.00		CC(=O)N1CCN([C@H]2CCC[C@@H](NC(=O)c3cc4c(F)ccc(C)c4[nH]3)C2)C[C@H]1C(F)(F)F [compound 1070]
5.28	< 5.70		CC(=O)N1CCN([C@@H]2CCC[C@@H](NC(=O)c3cc4c(F)ccc(C)c4[nH]3)C2)C[C@@H]1C(F)(F)F [compound 1071]
5.64	< 5.70		CC(=O)N1CCN([C@@H]2CCC[C@@H](NC(=O)c3cc4c(F)ccc(C)c4[nH]3)C2)C[C@H]1C(F)(F)F [compound 1072]
5.35	< 5.70		CC(=O)N1CCN([C@@H]2CCC[C@@H](NC(=O)c3cc4c(F)ccc(C)c4[nH]3)C2)[C@@H](C)C1 [compound 1074]
